The structures appear in SMILES notation. Where only a bound is given, the exact number is not on record here.

The AUC is concentration integrated over time. The term Tmax denotes the time from dosing to the highest level. Usually Cmax stands for the highest concentration seen after dosing. A word on the CC50: it is the concentration that lowers cell viability or growth by half. One may read the half-life as how long it takes for the measured level to halve. As usually defined, the IC50 is the point on the concentration scale where inhibition reaches its midpoint.

The nature of data set [1]: Prodrug conversion in C57BL/6 mouse plasma assessed as AUC(0 to 24 hrs) of TFV metabolite at 10 mg/kg, po measured up to 24 hrs by LC-MS/MS analysis. Format: ADME, organism-based. The arrangement: time < 24 hrs, dose 10 mg/kg, route po. Particulars: in vivo.
Data set [2] in a line: Ratio of prodrug AUC(0 to 24 hrs) to TFV AUC(0 to 24 hrs) in C57BL/6 mouse plasma at 10 mg/kg, po measured up to 24 hrs by LC-MS/MS analysis. Particulars: in vivo. Type of data set: ADME, organism-based.
A short description of data set [3]: Tmax in C57BL/6 mouse liver at 10 mg/kg, po measured up to 24 hrs by LC-MS/MS analysis. Type of data set: ADME, organism-based. The note with it: mouse, in vivo, po, 10 mg/kg, 24 h.
The nature of data set [4]: Cmax in C57BL/6 mouse liver at 10 mg/kg, po measured up to 24 hrs by LC-MS/MS analysis. Type of data set: ADME, organism-based. Particulars: in vivo. The arrangement: time < 24 hrs, dose 10 mg/kg, route po.
A short description of data set [5]: AUC(0 to 24 hrs) in C57BL/6 mouse liver at 10 mg/kg, po measured up to 24 hrs by LC-MS/MS analysis. Type of data set: ADME, organism-based. More on the design: time < 24 hrs, dose 10 mg/kg, route po. The note with it: in vivo.
Data set [6] in a line: Prodrug conversion in C57BL/6 mouse liver assessed as AUC(0 to 24 hrs) of TFV metabolite at 10 mg/kg, po measured up to 24 hrs by LC-MS/MS analysis. Format: ADME, organism-based. Particulars: in vivo. The arrangement: time < 24 hrs, dose 10 mg/kg, route po.
The nature of data set [7]: Prodrug conversion in C57BL/6 mouse liver assessed as Cmax of TFV metabolite at 10 mg/kg, po measured up to 24 hrs by LC-MS/MS analysis. Type of data set: ADME, organism-based. More on the design: dose 10 mg/kg, time < 24 hrs, route po. The note with it: in vivo.
The nature of data set [8]: Tmax in C57BL/6 mouse plasma at 10 mg/kg, po measured up to 24 hrs by LC-MS/MS analysis. Particulars: in vivo. Type of data set: ADME, organism-based.
Data set [9] in a line: Cmax in C57BL/6 mouse plasma at 10 mg/kg, po measured up to 24 hrs by LC-MS/MS analysis. Type of data set: ADME, organism-based. The arrangement: dose 10 mg/kg, time < 24 hrs, route po. The note with it: in vivo.
Data set [10] is described as follows: AUC(0 to 24 hrs) in C57BL/6 mouse plasma at 10 mg/kg, po measured up to 24 hrs by LC-MS/MS analysis. Type of data set: ADME, organism-based. More on the design: time < 24 hrs, dose 10 mg/kg, route po. The note with it: in vivo.
Data set [11] is described as follows: Half life in C57BL/6 mouse plasma at 10 mg/kg, po measured up to 24 hrs by LC-MS/MS analysis. The note with it: in vivo. Format: ADME, organism-based.
Data set [12] can be described thus: Prodrug conversion in C57BL/6 mouse plasma assessed as Tmax of TFV metabolite at 10 mg/kg, po measured up to 24 hrs by LC-MS/MS analysis. Type of data set: ADME, organism-based. The note with it: in vivo.
Data set [13] in a line: Prodrug conversion in C57BL/6 mouse plasma assessed as Cmax of TFV metabolite at 10 mg/kg, po measured up to 24 hrs by LC-MS/MS analysis. The note with it: in vivo. Type of data set: ADME, organism-based. The arrangement: time < 24 hrs, dose 10 mg/kg, route po.
A short description of data set [14]: Therapeutic index, ratio of CC50 for cytotoxicity against HEK293T cells to IC50 for antiviral activity against human immunodeficiency virus expressed in HEK293T cells. Type of data set: toxicity, cell-based. Particulars: read-out: Ratio CC50/IC50.
For data set [15], the system named is HEK-293T. Kind of data set: Cytotoxicity against HEK293T cells assessed as reduction in cell viability measured after 48 hrs by CellTiter 96 Aqueous One Solution reagent based cell proliferation assay. The note with it: human.
The nature of data set [16]: Prodrug conversion in C57BL/6 mouse liver assessed as Tmax of TFV metabolite at 10 mg/kg, po measured up to 24 hrs by LC-MS/MS analysis. The note with it: in vivo. Type of data set: ADME, organism-based.
Data set [17] is described as follows: Metabolic stability in human liver microsomes assessed as half life at 3 uM measured up to 30 min in presence of NADPH by LC-MS/MS analysis. Format: ADME, Microsome. The note with it: 0.5 h.
A short description of data set [18]: Ratio of prodrug AUC(0 to 24 hrs) to TFV AUC(0 to 24 hrs) in C57BL/6 mouse liver at 10 mg/kg, po measured up to 24 hrs by LC-MS/MS analysis. Particulars: in vivo. Format: ADME, organism-based.
The nature of data set [19]: Plasma protein binding in C57BL/6 mouse at 10 mg/kg, po measured up to 24 hrs by LC-MS/MS. Particulars: read-out: PPB. Format: ADME, organism-based.
A short description of data set [20]: Cmax in HBV patients at 50 mg, po qa administered for 28 days. Format: ADME, organism-based. The arrangement: dose 50 mg, time 28 day, route po. Particulars: human, in vivo.
Data set [21] can be described thus: Tmax in HBV patients at 50 mg, po qa administered for 28 days. Type of data set: ADME, organism-based. The note with it: human, in vivo, time 28 day.
A short description of data set [22]: AUC(0 to 24 hrs) in HBV patients at 50 mg, po qa administered for 28 days. Format: ADME, organism-based. The arrangement: time 28 day, dose 50 mg, route po. The note with it: human, in vivo.
Data set [23] is described as follows: Half life in HBV patients at 50 mg, po qa administered for 28 days. Format: ADME, organism-based. Particulars: human, in vivo, time 28 day.
The nature of data set [24]: Prodrug conversion in […] patients assessed as Cmax of TFV metabolite at 50 mg, po qa administered for 28 days. Format: ADME, organism-based. More on the design: time 28 day, dose 50 mg, route po. The note with it: human, in vivo, 672 h.
A short description of data set [25]: Prodrug conversion in […] patients assessed as AUC(0 to 24 hrs) of TFV metabolite at 50 mg, po qa administered for 28 days. The arrangement: time 28 day, dose 50 mg, route po. Type of data set: ADME, organism-based. The note with it: human, in vivo, 672 h.
The test system of data set [26] is Human immunodeficiency virus. Kind of data set: Potency index, ratio of TFV IC50 to TXL IC50 for antiviral activity against human immunodeficiency virus expressed in HEK293T cells coexpressing firefly luciferase gene incubated for 48 hrs by Bright-Glo luciferase assay. Format: functional.
The target of data set [27] is Cytochrome P450 2D6 (Homo sapiens, UniProt P10635). As to the kind of experiment: Inhibition of human recombinant CYP2D6 expressed in insect microsome using (3-[2-([…]-N-methylammonium)-ethyl]-7-methoxy-4-methylcoumarin iodide as a substrate incubated for 30 mins followed by addition of NADPH regenerating system measured immediately by fluorescence based analysis. Format: ADME, microsomes.
Cytochrome P450 2D6, sequence (P10635 whole entry): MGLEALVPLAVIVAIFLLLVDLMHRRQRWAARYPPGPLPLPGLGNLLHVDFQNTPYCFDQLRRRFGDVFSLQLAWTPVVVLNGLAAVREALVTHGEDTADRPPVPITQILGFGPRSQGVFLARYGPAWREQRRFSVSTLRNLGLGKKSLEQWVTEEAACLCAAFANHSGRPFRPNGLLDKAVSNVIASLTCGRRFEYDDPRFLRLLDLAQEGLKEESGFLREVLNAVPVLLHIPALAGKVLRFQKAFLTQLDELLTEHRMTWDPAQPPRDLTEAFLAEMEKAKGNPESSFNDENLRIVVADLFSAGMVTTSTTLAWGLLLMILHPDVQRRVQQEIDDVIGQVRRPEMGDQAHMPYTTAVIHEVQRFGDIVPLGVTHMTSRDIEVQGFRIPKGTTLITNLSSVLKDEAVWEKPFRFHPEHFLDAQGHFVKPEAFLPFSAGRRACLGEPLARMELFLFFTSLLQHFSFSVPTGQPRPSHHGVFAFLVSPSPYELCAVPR

Data set [28] concerns the target Cytochrome P450 3A4 (Homo sapiens, UniProt P08684). As to the kind of experiment: Inhibition of human recombinant CYP3A4 expressed in insect microsome using 7-benzyloxy-4-trifluoromethylcoumarin as a substrate incubated for 30 mins followed by addition of NADPH regenerating system measured immediately by fluorescence based analysis. Format: ADME, microsomes.
Data set [29] has as its system Human immunodeficiency virus. As to the kind of experiment: Antiviral activity against human immunodeficiency virus expressed in HEK293T cells coexpressing firefly luciferase gene incubated for 48 hrs by Bright-Glo luciferase assay. Type of data set: functional, organism-based. The note with it: Human immunodeficiency virus 1, HEK-293T.
Data set [30] concerns Human immunodeficiency virus. Kind of data set: Potency index, ratio of test compound IC50 to TXL IC50 for antiviral activity against human immunodeficiency virus expressed in HEK293T cells coexpressing firefly luciferase gene incubated for 48 hrs by Bright-Glo luciferase assay. Type of data set: functional.
A short description of data set [31]: Ratio of test compound t1/2 to TXL t1/2 for metabolic stability in human liver microsomes assessed as half life at 3 uM measured up to 30 min in presence of NADPH by LC-MS/MS analysis. Type of data set: ADME, Microsome. Particulars: 0.5 h.

Cytochrome P450 3A4, sequence (P08684 whole entry): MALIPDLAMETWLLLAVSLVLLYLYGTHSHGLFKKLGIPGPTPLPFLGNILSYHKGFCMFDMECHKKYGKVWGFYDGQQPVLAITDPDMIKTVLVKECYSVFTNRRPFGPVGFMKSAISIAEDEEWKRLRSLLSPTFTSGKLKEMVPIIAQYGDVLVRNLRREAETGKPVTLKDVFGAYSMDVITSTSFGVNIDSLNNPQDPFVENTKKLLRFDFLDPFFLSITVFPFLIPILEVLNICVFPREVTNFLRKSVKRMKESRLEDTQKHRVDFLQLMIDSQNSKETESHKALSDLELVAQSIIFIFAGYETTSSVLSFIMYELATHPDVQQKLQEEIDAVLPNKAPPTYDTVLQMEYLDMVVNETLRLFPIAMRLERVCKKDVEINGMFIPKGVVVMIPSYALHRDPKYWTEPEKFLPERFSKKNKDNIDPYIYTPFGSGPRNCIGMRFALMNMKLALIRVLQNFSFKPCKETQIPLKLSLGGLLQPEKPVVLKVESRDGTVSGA

Take `CCCCCCCCCCCCCCCCOCCCOP(=O)(O)CO[C@H](C)Cn1cnc2c(N)ncnc21.N`: the area under the curve (AUC) in data set [1] was 132 ng·h/mL; in [5], 4970 ng·h/mL; in data set [6], 26100 ng·h/mL; in [10] it was 301 ng·h/mL; in data set [25], 136 ng·h/mL. Moreover, the “Ratio AUC” value in [2] came to 2.29; in [18], 0.19. The Tmax in [3] stood at 1 h; in [8], 1 h; in data set [12], 2 h; in [16], 17.3 h; in [21], 1.5 h. Besides, the Cmax in data set [4] worked out at 2730 ng/mL; in [7], 1460 ng/mL; in [9], 125 ng/mL; in data set [13], 19.6 ng/mL; in [20], 51 ng/mL; in data set [24], 8.5 ng/mL. The t1/2 in data set [11] worked out at 2.92 h; in [17], 0.7 h. Besides, the selectivity ratio in [14] was determined as 5420. The cytotoxic concentration (CC50) in [15] amounted to 97.6 µM. Besides, the fraction unbound at 24 h in [19] is under 0.001. Moreover, in data set [22], the AUC at 672 h amounted to 110 ng·h/mL. For the same compound, the half-life in [23] is 1.5 h. Moreover, the “Ratio IC50” value in data set [26] is listed as 89.

`CCCCCCCCCCCCCCCCCCCCOP(=O)(O)CO[C@H](C)Cn1cnc2c(N)ncnc21.N`: the selectivity ratio in [14] stood at 104. Further, the half-maximal cytotoxic concentration (CC50) in data set [15] came to 13.2 µM. The 50% inhibitory concentration (IC50) was 33.2 µM in data set [27], 50 µM in data set [28] and 0.127 µM in [29]. Also, the “Ratio IC50” value in [30] was determined as 7.

With `C#CCCCCCCCCCCCCCOP(=O)(O)CO[C@H](C)Cn1cnc2c(N)ncnc21.N`, the selectivity ratio in data set [14] was over 3. Moreover, in data set [15], the CC50 was over 100 µM. In data set [29], this compound returned a half-maximal inhibitory concentration (IC50) of 28.6 µM. Moreover, the t1/2 in data set [17] turned out to be 1.57 h. Further, in data set [31], the Ratio result is on record as “>= 3”.

Source of the values: ChEMBL document CHEMBL5055639, “ω-Functionalized Lipid Prodrugs of HIV NtRTI Tenofovir with Enhanced Pharmacokinetic Properties” (J Med Chem, 2021).
